Experimental data taken from ChEMBL document CHEMBL5291721, “A preclinical secondary pharmacology resource illuminates target-adverse drug reaction associations of marketed drugs” (Nat Commun, 2023).

Experiments:
Adenosine receptor A1 = molecular target: T1, Adenosine receptor A1 (Homo sapiens, UniProt P30542)
T1 sequence (P30542 whole entry): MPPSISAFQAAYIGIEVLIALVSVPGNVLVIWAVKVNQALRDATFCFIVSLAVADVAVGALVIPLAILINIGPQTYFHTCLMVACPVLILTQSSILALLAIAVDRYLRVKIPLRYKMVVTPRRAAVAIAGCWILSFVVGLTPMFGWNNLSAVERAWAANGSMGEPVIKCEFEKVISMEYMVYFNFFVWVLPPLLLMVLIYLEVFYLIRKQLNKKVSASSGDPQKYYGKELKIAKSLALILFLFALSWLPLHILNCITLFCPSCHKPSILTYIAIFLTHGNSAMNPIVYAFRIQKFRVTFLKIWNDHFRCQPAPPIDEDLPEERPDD

[1] = molecular target: T2, Alpha-1A adrenergic receptor (Homo sapiens, UniProt P35348); assay type: functional, cell-based
T2 sequence (P35348 whole entry): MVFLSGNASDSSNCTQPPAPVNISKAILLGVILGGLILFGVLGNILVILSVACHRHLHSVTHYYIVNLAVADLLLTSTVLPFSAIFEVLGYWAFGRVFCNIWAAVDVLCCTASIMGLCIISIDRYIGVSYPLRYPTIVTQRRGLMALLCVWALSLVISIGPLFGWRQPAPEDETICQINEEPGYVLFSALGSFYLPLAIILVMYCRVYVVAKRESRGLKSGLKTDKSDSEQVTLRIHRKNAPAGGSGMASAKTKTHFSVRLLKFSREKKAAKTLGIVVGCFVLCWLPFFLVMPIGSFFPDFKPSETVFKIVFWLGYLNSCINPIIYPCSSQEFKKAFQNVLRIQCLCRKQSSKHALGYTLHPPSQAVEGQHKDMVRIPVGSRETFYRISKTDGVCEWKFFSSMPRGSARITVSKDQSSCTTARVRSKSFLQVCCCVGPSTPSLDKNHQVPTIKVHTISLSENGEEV

[2] = molecular target: Beta-2 adrenergic receptor (Homo sapiens, UniProt P07550)
Vasopressin V1a receptor = Vasopressin V1a receptor (Homo sapiens, UniProt P37288)
Vasopressin V2 receptor = Vasopressin V2 receptor (Homo sapiens, UniProt P30518)
[3] = molecular target: Voltage-dependent L-type calcium channel subunit alpha-1C (Rattus norvegicus, UniProt P22002); assay type: functional
Chain of Voltage-dependent L-type calcium channel subunit alpha-1C (P22002 whole entry): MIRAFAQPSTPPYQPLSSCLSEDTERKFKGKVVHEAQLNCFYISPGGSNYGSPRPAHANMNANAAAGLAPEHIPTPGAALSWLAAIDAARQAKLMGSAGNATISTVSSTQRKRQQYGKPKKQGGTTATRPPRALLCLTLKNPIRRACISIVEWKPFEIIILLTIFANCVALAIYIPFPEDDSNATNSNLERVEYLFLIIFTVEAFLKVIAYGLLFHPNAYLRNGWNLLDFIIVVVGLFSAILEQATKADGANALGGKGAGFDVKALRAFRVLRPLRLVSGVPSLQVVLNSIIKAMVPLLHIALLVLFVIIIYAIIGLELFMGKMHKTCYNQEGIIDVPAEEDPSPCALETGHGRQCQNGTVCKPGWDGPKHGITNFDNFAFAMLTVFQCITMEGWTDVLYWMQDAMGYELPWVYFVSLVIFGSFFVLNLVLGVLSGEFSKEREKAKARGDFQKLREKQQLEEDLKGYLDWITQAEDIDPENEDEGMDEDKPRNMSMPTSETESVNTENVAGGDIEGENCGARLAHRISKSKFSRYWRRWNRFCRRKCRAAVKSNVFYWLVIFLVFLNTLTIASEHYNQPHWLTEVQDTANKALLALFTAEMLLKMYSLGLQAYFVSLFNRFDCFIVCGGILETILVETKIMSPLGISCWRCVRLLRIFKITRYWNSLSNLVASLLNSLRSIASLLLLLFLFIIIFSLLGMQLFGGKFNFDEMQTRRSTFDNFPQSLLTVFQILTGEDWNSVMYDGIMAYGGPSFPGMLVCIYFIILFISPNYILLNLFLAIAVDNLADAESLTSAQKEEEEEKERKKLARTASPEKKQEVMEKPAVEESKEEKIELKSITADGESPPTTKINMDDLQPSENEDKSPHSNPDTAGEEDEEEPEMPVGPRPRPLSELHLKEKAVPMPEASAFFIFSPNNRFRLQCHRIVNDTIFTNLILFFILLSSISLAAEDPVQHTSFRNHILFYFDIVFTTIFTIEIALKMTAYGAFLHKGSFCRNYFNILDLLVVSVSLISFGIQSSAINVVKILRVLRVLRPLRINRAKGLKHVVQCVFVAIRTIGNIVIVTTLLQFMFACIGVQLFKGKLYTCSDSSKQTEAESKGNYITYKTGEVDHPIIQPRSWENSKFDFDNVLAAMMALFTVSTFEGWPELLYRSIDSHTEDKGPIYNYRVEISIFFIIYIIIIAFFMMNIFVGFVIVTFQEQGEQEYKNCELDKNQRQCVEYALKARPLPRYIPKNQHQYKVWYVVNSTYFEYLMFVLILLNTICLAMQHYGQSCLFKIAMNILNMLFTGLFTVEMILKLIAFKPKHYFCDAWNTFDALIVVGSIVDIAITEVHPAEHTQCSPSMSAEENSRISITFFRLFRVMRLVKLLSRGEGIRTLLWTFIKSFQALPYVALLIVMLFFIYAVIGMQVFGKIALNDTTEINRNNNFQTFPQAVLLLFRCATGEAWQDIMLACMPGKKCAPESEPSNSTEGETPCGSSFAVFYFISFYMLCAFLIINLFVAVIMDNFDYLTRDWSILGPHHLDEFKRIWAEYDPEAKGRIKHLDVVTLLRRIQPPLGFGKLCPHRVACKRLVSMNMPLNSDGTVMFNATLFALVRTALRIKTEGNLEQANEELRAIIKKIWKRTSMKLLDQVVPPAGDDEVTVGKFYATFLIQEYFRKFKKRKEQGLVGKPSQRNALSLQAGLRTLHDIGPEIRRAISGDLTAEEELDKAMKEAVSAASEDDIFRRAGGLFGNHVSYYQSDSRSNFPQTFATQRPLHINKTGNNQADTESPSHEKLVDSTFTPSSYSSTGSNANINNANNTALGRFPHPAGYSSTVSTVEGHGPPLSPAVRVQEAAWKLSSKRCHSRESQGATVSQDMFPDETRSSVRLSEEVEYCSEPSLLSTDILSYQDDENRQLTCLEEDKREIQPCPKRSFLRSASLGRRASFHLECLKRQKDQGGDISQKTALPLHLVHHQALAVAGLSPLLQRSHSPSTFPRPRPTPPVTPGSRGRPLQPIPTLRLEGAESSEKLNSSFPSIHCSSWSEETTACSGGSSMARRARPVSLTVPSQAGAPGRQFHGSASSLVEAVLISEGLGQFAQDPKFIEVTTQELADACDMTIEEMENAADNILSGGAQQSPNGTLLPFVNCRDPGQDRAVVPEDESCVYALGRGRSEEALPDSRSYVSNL

[4] = molecular target: T3, Gastrin/cholecystokinin type B receptor (Homo sapiens, UniProt P32239)
T3 sequence (P32239 whole entry): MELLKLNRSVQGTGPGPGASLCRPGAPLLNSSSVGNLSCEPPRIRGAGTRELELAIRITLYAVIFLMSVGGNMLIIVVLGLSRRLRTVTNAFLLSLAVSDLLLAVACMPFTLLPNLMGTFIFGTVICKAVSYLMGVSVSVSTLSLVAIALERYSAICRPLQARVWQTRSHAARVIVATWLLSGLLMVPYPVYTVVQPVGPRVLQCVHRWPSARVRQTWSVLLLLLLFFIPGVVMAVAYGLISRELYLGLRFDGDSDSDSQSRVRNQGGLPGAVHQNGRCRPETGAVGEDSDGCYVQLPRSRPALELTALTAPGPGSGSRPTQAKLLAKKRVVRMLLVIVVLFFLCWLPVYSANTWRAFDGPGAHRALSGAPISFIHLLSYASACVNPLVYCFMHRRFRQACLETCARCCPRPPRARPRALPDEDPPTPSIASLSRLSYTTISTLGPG

[5] = molecular target: T4, Muscarinic acetylcholine receptor M2 (Homo sapiens, UniProt P08172); assay type: functional, cell-based
T4 sequence (P08172 whole entry): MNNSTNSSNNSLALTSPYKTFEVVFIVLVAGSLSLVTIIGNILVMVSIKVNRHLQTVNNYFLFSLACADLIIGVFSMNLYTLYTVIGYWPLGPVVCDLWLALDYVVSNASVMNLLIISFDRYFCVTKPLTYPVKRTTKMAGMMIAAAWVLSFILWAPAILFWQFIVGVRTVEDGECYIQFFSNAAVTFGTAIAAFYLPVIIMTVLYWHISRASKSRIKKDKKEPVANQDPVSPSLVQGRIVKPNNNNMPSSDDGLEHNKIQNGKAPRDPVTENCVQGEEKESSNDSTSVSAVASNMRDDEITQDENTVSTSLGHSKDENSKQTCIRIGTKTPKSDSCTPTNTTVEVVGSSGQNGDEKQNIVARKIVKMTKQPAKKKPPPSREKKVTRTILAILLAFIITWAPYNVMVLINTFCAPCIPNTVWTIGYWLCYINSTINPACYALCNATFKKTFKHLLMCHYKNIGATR

Cannabinoid receptor 1 = Cannabinoid receptor 1 (Homo sapiens, UniProt P21554); assay type: functional, cell-based
Endothelin-1 receptor = molecular target: T5, Endothelin-1 receptor (Homo sapiens, UniProt P25101)
T5 sequence (P25101 whole entry): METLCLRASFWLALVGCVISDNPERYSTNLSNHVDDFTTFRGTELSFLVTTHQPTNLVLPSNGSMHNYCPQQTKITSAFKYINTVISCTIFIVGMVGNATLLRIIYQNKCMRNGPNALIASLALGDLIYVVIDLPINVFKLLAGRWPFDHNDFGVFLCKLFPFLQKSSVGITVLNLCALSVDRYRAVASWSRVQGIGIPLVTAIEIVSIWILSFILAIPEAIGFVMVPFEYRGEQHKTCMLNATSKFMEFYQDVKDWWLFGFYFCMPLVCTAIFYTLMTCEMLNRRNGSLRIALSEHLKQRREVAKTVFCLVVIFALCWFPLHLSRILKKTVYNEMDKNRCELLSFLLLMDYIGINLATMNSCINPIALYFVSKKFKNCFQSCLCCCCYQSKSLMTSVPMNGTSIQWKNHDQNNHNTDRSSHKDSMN

Histamine H2 receptor = Histamine H2 receptor (Homo sapiens, UniProt P25021); assay type: functional, cell-based
[6] = molecular target: 5-hydroxytryptamine receptor 2A (Homo sapiens, UniProt P28223); assay type: functional, cell-based
Chain of 5-hydroxytryptamine receptor 2A (P28223 whole entry): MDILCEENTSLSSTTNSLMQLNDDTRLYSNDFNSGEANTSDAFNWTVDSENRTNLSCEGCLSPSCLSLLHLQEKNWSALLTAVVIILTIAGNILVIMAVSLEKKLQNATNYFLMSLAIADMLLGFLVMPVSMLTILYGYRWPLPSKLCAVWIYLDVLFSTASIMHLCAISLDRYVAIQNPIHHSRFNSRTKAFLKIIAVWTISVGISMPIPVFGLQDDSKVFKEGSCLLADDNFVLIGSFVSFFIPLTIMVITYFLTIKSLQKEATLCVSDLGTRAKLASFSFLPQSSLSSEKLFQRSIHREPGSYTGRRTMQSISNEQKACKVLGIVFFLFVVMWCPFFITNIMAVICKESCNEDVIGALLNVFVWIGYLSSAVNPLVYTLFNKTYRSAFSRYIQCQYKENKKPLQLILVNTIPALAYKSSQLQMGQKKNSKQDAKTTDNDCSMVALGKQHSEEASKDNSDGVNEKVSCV

[7] = molecular target: 5-hydroxytryptamine receptor 2B (Homo sapiens, UniProt P41595); assay type: functional, cell-based
Motilin receptor = Motilin receptor (Homo sapiens, UniProt O43193)
Chain of Motilin receptor (O43193 whole entry): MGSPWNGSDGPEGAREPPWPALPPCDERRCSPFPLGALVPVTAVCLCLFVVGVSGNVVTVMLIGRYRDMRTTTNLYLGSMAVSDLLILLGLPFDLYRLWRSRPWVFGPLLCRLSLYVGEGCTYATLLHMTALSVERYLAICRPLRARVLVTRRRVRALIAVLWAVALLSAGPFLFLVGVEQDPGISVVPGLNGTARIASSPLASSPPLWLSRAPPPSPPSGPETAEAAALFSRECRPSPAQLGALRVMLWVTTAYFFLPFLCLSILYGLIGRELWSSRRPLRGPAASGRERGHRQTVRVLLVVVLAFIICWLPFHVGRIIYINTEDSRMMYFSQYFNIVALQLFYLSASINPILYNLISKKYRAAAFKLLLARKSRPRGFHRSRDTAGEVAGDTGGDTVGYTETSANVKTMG

[8] = molecular target: Sodium-dependent dopamine transporter (Homo sapiens, UniProt Q01959)
[9] = molecular target: Sodium-dependent serotonin transporter (Homo sapiens, UniProt P31645)
Chain of Sodium-dependent serotonin transporter (P31645 whole entry): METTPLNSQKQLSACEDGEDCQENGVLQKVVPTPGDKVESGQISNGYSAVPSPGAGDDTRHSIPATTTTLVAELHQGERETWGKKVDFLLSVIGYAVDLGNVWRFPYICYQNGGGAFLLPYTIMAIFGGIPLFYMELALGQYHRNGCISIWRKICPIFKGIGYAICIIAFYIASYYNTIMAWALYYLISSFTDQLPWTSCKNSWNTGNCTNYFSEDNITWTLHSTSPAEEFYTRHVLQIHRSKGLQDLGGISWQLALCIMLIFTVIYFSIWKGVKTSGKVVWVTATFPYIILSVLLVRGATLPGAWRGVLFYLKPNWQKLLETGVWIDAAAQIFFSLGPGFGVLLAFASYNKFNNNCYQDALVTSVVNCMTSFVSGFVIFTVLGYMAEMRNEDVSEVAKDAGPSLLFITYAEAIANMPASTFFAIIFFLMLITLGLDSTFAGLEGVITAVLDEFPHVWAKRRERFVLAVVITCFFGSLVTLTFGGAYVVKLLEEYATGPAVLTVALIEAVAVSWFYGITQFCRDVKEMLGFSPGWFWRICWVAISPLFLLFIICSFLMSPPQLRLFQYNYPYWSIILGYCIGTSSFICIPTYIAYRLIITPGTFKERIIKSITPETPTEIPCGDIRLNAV

[10] = molecular target: cGMP-inhibited 3',5'-cyclic phosphodiesterase 3A (Homo sapiens, UniProt Q14432); assay type: functional
Chain of cGMP-inhibited 3',5'-cyclic phosphodiesterase 3A (Q14432 whole entry): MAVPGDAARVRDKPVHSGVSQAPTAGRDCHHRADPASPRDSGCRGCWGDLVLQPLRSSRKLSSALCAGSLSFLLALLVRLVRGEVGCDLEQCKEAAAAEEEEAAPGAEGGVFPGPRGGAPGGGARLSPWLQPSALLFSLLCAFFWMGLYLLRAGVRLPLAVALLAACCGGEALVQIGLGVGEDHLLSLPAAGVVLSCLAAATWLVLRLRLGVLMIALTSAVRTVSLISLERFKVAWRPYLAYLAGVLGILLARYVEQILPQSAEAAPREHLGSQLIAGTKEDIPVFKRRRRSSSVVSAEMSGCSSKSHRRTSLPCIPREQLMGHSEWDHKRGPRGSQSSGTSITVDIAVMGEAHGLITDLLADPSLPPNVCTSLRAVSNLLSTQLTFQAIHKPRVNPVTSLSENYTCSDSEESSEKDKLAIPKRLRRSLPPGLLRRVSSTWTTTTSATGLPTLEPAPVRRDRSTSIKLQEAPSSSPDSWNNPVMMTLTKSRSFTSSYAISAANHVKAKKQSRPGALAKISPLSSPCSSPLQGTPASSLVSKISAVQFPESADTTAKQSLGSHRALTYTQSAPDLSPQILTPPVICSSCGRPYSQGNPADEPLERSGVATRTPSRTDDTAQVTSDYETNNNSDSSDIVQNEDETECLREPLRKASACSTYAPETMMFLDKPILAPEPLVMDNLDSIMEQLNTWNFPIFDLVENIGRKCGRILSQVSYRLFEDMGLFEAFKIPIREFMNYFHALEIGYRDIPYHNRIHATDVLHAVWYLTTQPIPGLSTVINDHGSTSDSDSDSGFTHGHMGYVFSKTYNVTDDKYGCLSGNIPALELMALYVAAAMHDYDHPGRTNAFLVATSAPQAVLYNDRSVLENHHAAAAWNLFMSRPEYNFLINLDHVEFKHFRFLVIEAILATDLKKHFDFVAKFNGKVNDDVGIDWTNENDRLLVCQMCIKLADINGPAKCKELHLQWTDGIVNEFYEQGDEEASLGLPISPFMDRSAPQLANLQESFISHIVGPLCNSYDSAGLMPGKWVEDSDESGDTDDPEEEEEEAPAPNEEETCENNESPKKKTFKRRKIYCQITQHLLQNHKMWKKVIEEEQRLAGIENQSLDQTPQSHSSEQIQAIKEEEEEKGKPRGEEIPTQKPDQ
Also: assay procedure not described here.

Row | SMILES | AC50 (Adenosine receptor A1) [µM] | AC50 [1] [µM] | AC50 [2] [µM] | AC50 (Vasopressin V1a receptor) [µM] | AC50 (Vasopressin V2 receptor) [µM] | AC50 [3] [µM] | AC50 [4] [µM] | AC50 [5] [µM] | AC50 (Cannabinoid receptor 1) [µM] | AC50 (Endothelin-1 receptor) [µM] | AC50 (Histamine H2 receptor) [µM] | AC50 [6] [µM] | AC50 [7] [µM] | AC50 (Motilin receptor) [µM] | AC50 [8] [µM] | AC50 [9] [µM] | AC50 [10] [µM]
1 | CCCC(C)(COC(N)=O)COC(=O)NC(C)C (configuration not stated) [CARISOPRODOL] | > 30 | > 30 | > 10 | > 10 | > 30 | > 10 | > 30 | > 10 | > 30 | > 30 | > 10 | > 30 | > 10 | > 10 | > 10 | > 10 | > 30
2 | CCC(C)(Oc1ccc(C2(c3ccc(OC(C)(CC)C(=O)O)cc3)CCCCC2)cc1)C(=O)O (configuration not stated) [CLINOFIBRATE] | > 30 | > 30 | > 30 | > 30 | > 30 | > 30 | > 30 | > 30 | > 30 | > 30 | > 30 | > 30 | > 30 | > 30 | > 30 | > 30 | > 30
3 | N[C@H](Cc1cc(I)c(Oc2cc(I)c(O)c(I)c2)c(I)c1)C(=O)O [DEXTROTHYROXINE] | > 30 | > 30 | > 10 | > 30 | > 30 | > 10 | > 30 | > 10 | > 30 | > 30 | > 10 | > 30 | > 10 | > 10 | > 30 | > 30 | > 10
4 | CCCCC[C@H](O)/C=C/[C@H]1[C@H](O)CC(=O)[C@@H]1C/C=C\CCCC(=O)O [DINOPROSTONE] | > 30 | > 30 | > 30 | > 30 | > 30 | > 30 | > 30 | > 30 | > 30 | > 30 | > 30 | > 30 | > 30 | > 30 | > 30 | > 30 | > 30
5 | CC(C)c1cc2c(cc1S(=O)(=O)O)[C@@]1(C)CCC[C@@](C)(C(=O)O)[C@@H]1CC2 [ECABET] | > 30 | > 30 | > 30 | > 30 | > 30 | > 30 | > 30 | > 30 | > 30 | > 30 | > 30 | > 30 | > 30 | > 30 | > 30 | > 30 | > 30
6 | CCCN(CC)C(CC)C(=O)Nc1c(C)cccc1C (configuration not stated) [ETIDOCAINE] | > 30 | > 30 | > 30 | > 30 | > 30 | > 30 | > 30 | > 30 | > 30 | > 30 | > 30 | > 30 | > 30 | > 30 | > 30 | > 30 | > 30
7 | O=C(O)c1ccccc1Nc1cccc(C(F)(F)F)c1 [FLUFENAMIC ACID] | > 30 | > 30 | > 10 | > 30 | > 30 | > 10 | > 30 | > 10 | > 30 | > 30 | > 10 | > 30 | > 30 | > 10 | > 30 | > 30 | > 30
8 | C#C[C@]1(O)CC[C@H]2[C@@H]3CCC4=CC(=O)CCC4=C3C=C[C@@]21CC [GESTRINONE] | > 30 | > 30 | > 30 | > 30 | > 30 | > 30 | > 30 | > 30 | > 30 | > 30 | > 30 | > 30 | > 30 | > 30 | 25 | 0.033 | 2.9
9 | CCCCCCOC(=O)CCC(=O)CN [HEXAMINOLEVULINATE] | > 30 | > 30 | > 30 | > 30 | > 30 | > 30 | > 30 | > 30 | > 30 | > 30 | > 30 | > 30 | > 30 | > 30 | > 30 | > 30 | > 30
10 | CC(C)OC(=O)C(C(=O)OC(C)C)=C1SC=CS1 [MALOTILATE] | > 30 | > 30 | > 30 | > 30 | > 30 | > 30 | > 30 | > 30 | > 30 | > 30 | > 30 | > 30 | > 30 | > 30 | > 30 | > 30 | > 30
11 | CN(c1nccc(=O)[nH]1)C1CCN(c2nc3ccccc3n2Cc2ccc(F)cc2)CC1 [MIZOLASTINE] | > 30 | > 30 | > 30 | > 30 | > 30 | > 30 | > 30 | > 30 | > 30 | > 30 | > 30 | > 30 | > 30 | > 30 | > 30 | > 30 | 6.1
